Patent US20180078576A1, “SULPHATED XYLANS FOR TREATMENT OR PROPHYLAXIS OF RESPIRATORY DISEASES” (Paradigm Biopharmaceuticals Limited, priority 2007, published 2018)

How the values were obtained:
[1] = test system: male C57Bl/6J mice exposed to cigarette smoke; experiment: Mouse model of emphysema/COPD, chronic cigarette smoke exposure; type: in vivo; details: chronic smoke exposure 6 months, PPS once a day
Protocol: A mouse model of emphysema was used. Acute and chronic exposure of mice to cigarette smoke lead to lung responses that in part mimic the inflammatory and structural changes observed in COPD. In this model male C57Bl/6J mice are subjected to acute and chronic smoke exposure, with normal room air being the control situation. In the acute study mice were exposed to either room air or to the smoke of five cigarettes (approximately 12 mg of tar and 0.9 mg of nicotine) for 20 minutes. In the chronic study mice were exposed to either room air or to the smoke of three cigarettes/day for 5 days/week for 6 months. The 4 groups of mice were then further divided so that mice within each group also received PPS via an inhaled route.
The animals in the chronic study received PPS once a day for the duration of the experiment. At the completion of the experiment animals were killed and the lungs fixed intratracheally with formalin (5%) and lung volume was measured by water displacement. The lung tissue was prepared for histochemistry and immunohistochemistry, the lung tissues being stained for hematoxylin-eosin and/or periodic acid-Schiff or with antibodies to the macrophage marker Mac-3. The level of desmosine in the lung tissue was also determined. Desmosine is an elastin-specific imino acid; the assessment of desmosine in the lung is taken as an indicator of the lung elastin content. […]

IL-5 = target: T1, IL-5 (Homo sapiens, UniProt P05113); experiment: IL-5 dependent Ba/F-IL-5 cell proliferation (luciferase); type: cell-based; details: dose-response, FIG. 4
T1 construct: made in house; host or cells: baculovirus expression system (from the general materials paragraph)
T1 sequence (P05113 20-134): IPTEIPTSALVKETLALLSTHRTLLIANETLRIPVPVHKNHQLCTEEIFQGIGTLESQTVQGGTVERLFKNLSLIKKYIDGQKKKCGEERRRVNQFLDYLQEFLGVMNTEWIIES
Protocol: PPS inhibited the proliferation of an IL-5 responsive cell line. This occurs at very low doses and is not due to a toxic effect of the PPS as other similarly sulfated polysaccharides have no affect in this assay. These experiments are performed with the IL-5 responsive cells, Ba/F-IL-5. The Ba/F-IL-5 cells were derived from the Ba/F3 cell line.
The Ba/F3 cell line was transformed to be both IL-5 dependent and to express luciferase by co-transfection of the cells with pGL3 control vector (Promega, USA) and pEE6 hcmv-IL-5Rα. The control vector, pGL3 expresses a modified luciferase under the direct control of the SV40 promoter and enhancer, but contains no selectable marker. To prepare pEE6 hcmv-hIL-5Rα a full length human IL-5 receptor α chain (hIL-5R-α) was cloned by RT PCR from HL60 cells. The preparation of the Ba/F-IL-5 cells has been described by Coombe et al, Journal of Immunological Methods 215: 145-150, 1998. […]
After transfection, positive transfectants are selected in 3 μg/ml puromycin. […] The cells are counted with a Coulter Z2 Particle Counter and Size Analyzer (Coulter Electronics, England) and routinely 1.6×10^4 cells are added to microplate wells that contain either no IL-5 (negative control) or various dilutions of IL-5. When the effect of PPS, or other sulfated polysaccharides is to be measured, the wells also contain various concentrations of these molecules. […]

Human leukocyte elastase = target: T2, Human leukocyte elastase (Homo sapiens, UniProt P08246); experiment: Elastase assay with fluorogenic substrate; type: biochemical; details: fluorogenic substrate MeOSuc-Ala-Ala-Pro-Val-amido-methylcoumarin, pH 7.4, 37° C., 60 minutes; read-out: IC50, inhibition of human leukocyte elastase activity
T2 sequence (P08246 30-267): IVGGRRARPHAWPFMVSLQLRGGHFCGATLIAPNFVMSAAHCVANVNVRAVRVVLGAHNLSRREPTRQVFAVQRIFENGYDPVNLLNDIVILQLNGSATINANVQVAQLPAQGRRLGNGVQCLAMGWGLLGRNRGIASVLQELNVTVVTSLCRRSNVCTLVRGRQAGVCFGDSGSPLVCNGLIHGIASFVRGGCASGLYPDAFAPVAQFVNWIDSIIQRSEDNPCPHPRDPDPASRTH
Protocol: Elastase is a protein that is a potential target for the treatment of COPD. Elastase assays were performed in 96-well plastic microplates for easy quantification by the fluorescent plate reader. Human leukocyte elastase (5 nM/well) was incubated in the presence of absence of pentosan polysulfate, or other sulfated polysaccharides, with the fluorogenic substrate MeOSuc-Ala-Ala-Pro-Val-amido-methylcoumarin (20 μM/well) in a sodium phosphate buffer, pH 7.4. The mixture was incubated at 37° C. for 60 minutes before the reaction was stopped by the addition of 10 μl/well of […] acetic acid and the mixture transferred to a 96-well microplate with fluorescence being measured using an excitation wavelength of 355 nm and an emission wavelength of 460 nm. Various concentrations of inhibitors were used to allow the calculation of the concentration of polysaccharide required to inhibit enzyme activity by 50% (IC50).

Substance: Pentosan polysulfate [PPS]
- Overall effect in chronic COPD model [1]: acting as an anti-inflammatory agent
- Inhibition of IL-5 dependent Ba/F-IL-5 cell proliferation (in words) (IL-5): effective inhibitor
- IC50 (Human leukocyte elastase): ~1.8 µM
